Usually IC50 stands for the concentration at which inhibition is half-maximal. Low values mean higher potency, high ones lower potency.

Where “and” joins values, the source holds several entries; their conditions need not be identical. Equal values may be shown once.

Data on nine molecules can be found in ChEMBL document CHEMBL1250430, “Synthesis, semipreparative HPLC separation, biological evaluation, and 3D-QSAR of hydrazothiazole derivatives as human monoamine oxidase B inhibitors” (Bioorg Med Chem, 2010).

Experiment [1] addresses T1, Amine oxidase [flavin-containing] A (Homo sapiens, UniProt P21397).
T1 sequence (P21397 whole entry): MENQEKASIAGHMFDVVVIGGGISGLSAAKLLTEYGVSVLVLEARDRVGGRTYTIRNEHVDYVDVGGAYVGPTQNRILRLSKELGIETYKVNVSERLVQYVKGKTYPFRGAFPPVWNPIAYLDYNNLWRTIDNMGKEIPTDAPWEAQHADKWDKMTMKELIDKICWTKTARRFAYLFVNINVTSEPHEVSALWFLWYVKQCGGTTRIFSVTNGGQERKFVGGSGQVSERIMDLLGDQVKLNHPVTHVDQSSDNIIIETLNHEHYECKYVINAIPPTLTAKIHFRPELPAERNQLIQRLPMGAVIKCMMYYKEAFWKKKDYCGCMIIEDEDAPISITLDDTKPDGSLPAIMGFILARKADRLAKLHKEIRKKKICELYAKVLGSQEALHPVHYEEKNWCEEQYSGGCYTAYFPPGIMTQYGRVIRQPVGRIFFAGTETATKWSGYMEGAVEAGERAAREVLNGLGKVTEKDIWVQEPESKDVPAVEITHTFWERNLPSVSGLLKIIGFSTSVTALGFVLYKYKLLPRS
Description: biochemical.
Description: (§1) Inhibition of human recombinant MAOA expressed in baculovirus infected BTI-TN-5B1-4 insect cells assessed as hydrogen peroxide production from p-tyramine by amplex red assay

The target in experiment [2] is T1, Amine oxidase [flavin-containing] A. The settings on record: bti-tn-5b1-4.
Description: as §1

On to `Clc1ccc(-c2csc(NN=C3CCCC3)n2)c(Cl)c1`, for which, in experiment [1], the IC50 came to 54.5 µM. On the same count and under the same terms, under `Fc1ccc(-c2csc(NN=C3CCCC3)n2)c(F)c1` stands 2.29 µM and 2.32 µM; under `Clc1ccc(-c2csc(NN=C3CCCCCC3)n2)c(Cl)c1`, 59.3 µM; under `Fc1ccc(-c2csc(NN=C3CCCCCC3)n2)c(F)c1`, 7.23 µM. `O=[N+]([O-])c1ccc(-c2csc(NN=C3CCCCCC3)n2)cc1`: the IC50 in experiment [1] came to 17.9 µM. `Fc1ccc(-c2csc(NN=C3CCCCC3)n2)c(F)c1` came in with an IC50 in experiment [1] of 45.8 µM. Molecule `CC1CCC(=NNc2nc(-c3ccc(Cl)cc3Cl)cs2)CC1` (centres undefined) gave an IC50 in experiment [2] of 81.5 µM. `O=[N+]([O-])c1ccc(-c2csc(NN=C3CCCC3)n2)cc1` displayed an IC50 in experiment [1] of 0.344 µM. Still for that read-out and setting: under `N#Cc1ccc(-c2csc(NN=C3CCCC3)n2)cc1` stands 0.644 µM.
